Data: patent US20090118253A1, “COMPOSITIONS AND METHODS FOR TREATING DYSFUNCTIONAL UTERINE BLEEDING” (REPROS THERAPEUTICS INC., priority 2007, published 2009)

What was measured:
[1] = Urinary estrogen levels (follicular phase) in cynomolgus monkeys; assay type: in vivo, Cynomolgus monkeys (Macaca fascicularis); set-up: Urinary estrogen, follicular phase, Mean: unit not given here; conditions: for Urinary estrogen, follicular phase, Mean: CDB-4124 or RU-486 oral 1.0 mg/kg/day, Lupron IM once per month
Procedure: (§1) Cynomolgus monkeys (Macaca fascicularis) (n=14) were treated orally for 36 weeks with CDB-4124 or RU-486 at 1.0 mg/kg/day or with placebo (control). Another group (n=14) received Lupron® IM once per month. Urinary progesterone levels were measured for each animal for one month during the middle of the study (weeks 14-17) and for the last month of the study (weeks 33-36). The results are presented below:
Urinary estrogen levels were measured for each animal of Example 6 for one month during the middle of the study (weeks 14-17) and for the last month of the study (weeks 33-36). The follicular phase results are based on 35 baseline ovulating cycles.

human endometrium = experiment: Six month endometriosis study: ultrasound measurements of endometrial thickness; assay type: in vivo
Description: Women in the study were closely monitored for changes in the structure of the endometrium. […] Comparisons were made to both baseline and visit one ultrasound measurements of endometrial thickness. […]

[2] = system: Cynomolgus monkey endometrial epithelium, uterus stroma and breast; experiment: TUNEL apoptosis in cynomolgus monkey tissue; assay type: in vivo, Cynomolgus monkeys (Macaca fascicularis); conditions: week 36, percent apoptotic cells
Procedure: Apoptosis was assessed in tissue from the same animals on slides by the terminal deoxynucleotidyl transferase mediated dUTP-biotin nick end labeling (TUNEL) technique.

[3] = Urinary progesterone levels (luteal phase) in cynomolgus monkeys; assay type: in vivo, Cynomolgus monkeys (Macaca fascicularis); conditions: n=14 per group; CDB-4124 or RU-486 oral 1.0 mg/kg/day for 36 weeks; Lupron IM once per month
Procedure: as §1, with “33-36).” for “33-36). The results are presented below:”

[4] = system: pre-menopausal adult women diagnosed with endometriosis; experiment: Six month endometriosis study: pain diaries and pain intensity surveys; assay type: in vivo, human
Procedure: Pain reduction also occurred more rapidly than with the active control, Lucrin®. The response of pain to treatment in this study was analyzed in two ways. Patients in the study maintained daily pain diaries to record the severity and frequency of pain. In addition, at each office visit, patients filled out endometriosis symptom surveys that included a questionnaire that evaluated intensity of pain on a bad day on a scale of 0-10 with 10 being the greatest intensity. […] This decrease in duration of pain was statistically better (p=0.0012) than the 117.8 (74%; standard deviation 51.4 days) pain free days achieved with Lucrin n. […] Patients on CDB-4124 12.5 mg and 25 mg doses had 115.9 (66%; standard deviation 69.2 days) and 133.6 (75%; standard deviation 27.4 days) pain free days, respectively. […] The 25 mg and 12.5 mg doses of CDB-4124 were not statistically different from Lucrin®. […] The intensity of pain was asked by the question: “On a scale of 1-10, with 0 being no pain and 10 being extreme pain, how intense was your pain on a bad day?” The mean scores for intensity of pain at baseline were 6.3 for the CDB-4124 groups and 6.1 for the Lucrin® group. […] At month three all four active treatment groups had satistically significant reduction in pain compared with baseline, with the following scores: 3.7 (p=0.03) for 12.5 mg CDB-4124, 3.2 (p=0.03) for 25 mg CDB-4124, 1.6 (p=0.015) for 50 mg CDB-4124 and 1.5 (p=0.016) for Lucrin®. These dose related reductions continued until month six when the values for pain intensity were 2.0 (p=0.008), 2.8 (p=0.023), 0.6 (p=0.004) and 0.7 (p=0.016), respectively. Two months after stopping treatment pain returned and was of similar intensity in all four treatment groups.

[5] = system: Cynomolgus monkey endometrial epithelia, uterus stroma and breast; experiment: BrdU incorporation, tissue proliferation in cynomolgus monkeys; assay type: in vivo, Cynomolgus monkeys (Macaca fascicularis); conditions: week 36, % cells positive for incorporation of BrdU, three animals per group
Procedure: At week 36, three animals from each group of Example 6 were injected within 24 hours of sacrifice with the thymidine analog bromodeoxyuridine (BrdU), a marker of proliferating cells and their progeny, to assess tissue proliferation. Full thickness uterine sections were stained and examined microscopically for evidence of proliferation in terms of the % cells positive for incorporation of BrdU: […]

[6] = in vivo
Procedure: Thirty-nine pre-menopausal adult women diagnosed with endometriosis were the subject of a six month study of Proellex™ (CDB-4124) in the treatment of endometriosis. The study included three dose levels of CDB-4124 as well as a positive control arm. The positive control was Lucrin®, a GnRH agonist, commonly used for the treatment of endometriosis (also known as Lupron®). CDB-4124 was administered in a double blinded fashion as a daily oral capsule at dosages of 12.5mg/day (n=2), 25mg/day (n=3) and 50mg/day (n=3). Another group (n=4) were injected with a slow release formulation of Lucrin® once per month as a positive control.

glucocorticoid receptor = biological target: T1, glucocorticoid receptor (Homo sapiens, UniProt P04150); conditions: compared with parent CDB-4124; cited from earlier work
T1 sequence (P04150 1-777): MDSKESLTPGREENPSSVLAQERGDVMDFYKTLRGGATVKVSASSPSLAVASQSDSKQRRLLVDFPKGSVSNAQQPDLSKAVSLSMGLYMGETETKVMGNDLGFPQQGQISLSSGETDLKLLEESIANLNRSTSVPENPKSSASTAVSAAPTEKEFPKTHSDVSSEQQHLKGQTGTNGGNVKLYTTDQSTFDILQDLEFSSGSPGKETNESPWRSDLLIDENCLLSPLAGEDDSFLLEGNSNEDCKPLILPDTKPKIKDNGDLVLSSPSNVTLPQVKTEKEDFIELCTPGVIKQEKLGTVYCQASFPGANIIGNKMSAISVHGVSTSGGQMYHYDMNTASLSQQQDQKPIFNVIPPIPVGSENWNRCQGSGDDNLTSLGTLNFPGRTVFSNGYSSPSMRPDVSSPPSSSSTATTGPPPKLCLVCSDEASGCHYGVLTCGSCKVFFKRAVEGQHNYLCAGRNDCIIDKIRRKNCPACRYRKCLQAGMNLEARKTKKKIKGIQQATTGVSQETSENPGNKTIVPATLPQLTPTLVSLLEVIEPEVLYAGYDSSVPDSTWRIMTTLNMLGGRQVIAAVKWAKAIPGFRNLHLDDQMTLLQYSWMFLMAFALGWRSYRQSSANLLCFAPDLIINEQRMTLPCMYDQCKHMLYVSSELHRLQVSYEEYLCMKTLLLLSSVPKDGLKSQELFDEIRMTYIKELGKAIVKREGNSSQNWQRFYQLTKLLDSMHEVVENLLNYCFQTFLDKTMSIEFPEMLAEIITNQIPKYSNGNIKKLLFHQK

CCNC(=O)[C@@H]1CCCN1C(=O)[C@H](CCCNC(=N)N)NC(=O)[C@H](CC(C)C)NC(=O)[C@@H](CC(C)C)NC(=O)[C@H](Cc1ccc(O)cc1)NC(=O)[C@H](CO)NC(=O)[C@H](Cc1c[nH]c2ccccc12)NC(=O)[C@H](Cc1c[nH]cn1)NC(=O)[C@@H]1CCC(=O)N1 [Lupron ®, leuprolide acetate]
Follicular phase estrogen Lower? ([1]; Week 18): Yes | Urinary estrogen, follicular phase, Mean ([1]; Week 18): 49.9 | Follicular phase estrogen Lower? ([1]; Week 36): Yes | Urinary estrogen, follicular phase, Mean ([1]; Week 36): 41.7 | thickening of the endometrium after three months (human endometrium; Lucrin, five women): did not have a thickening of the endometrium | Endometrium (mm), 1st dose (human endometrium; Lupron once per month, 1st dose visit): 7.5 mm | Endometrium (mm), 3 months (human endometrium; Lupron once per month, 3 months): 2.75 mm | Endometrium (mm), screening (human endometrium; Lupron once per month, screening (baseline)): 7.9 mm | Breast Apo % [2]: 1.4 ± 0.7% | Uterus epithelium Apo % [2]: 0.2 ± 0.1% | Uterus stroma Apo % [2]: 0.2 ± 0.1% | Decrease in luteal phase progesterone (number of animals) [3]: 13 | No decrease in luteal phase progesterone (number of animals) [3]: 1 | mean score for intensity of pain on a bad day (scale 0-10) ([4]; baseline): 6.1 | score for intensity of pain on a bad day (scale 0-10) ([4]; month six, Lucrin once per month): 0.7 | score for intensity of pain on a bad day (scale 0-10) ([4]; month three, Lucrin once per month): 1.5 | pain free days over the 180 day treatment period ([4]; women, Lucrin once per month): 117.8 days | pain free days, percent ([4]; women, Lucrin once per month, 180 day treatment period): 74% | days of pain over the first three months ([4]; women, Lucrin slow release injection once per month): 19.4 days | Breast Brdu-% [5]: 0.3 ± 0.1% | Uterus epithelium Brdu-% [5]: 3.1 ± 0.8% | Uterus stroma Brdu-% [5]: 2.2 ± 1.0% | biomarkers of bone resorption compared with baseline [6]: statistically significant increase | estrogen level [6]: < 20 pg/mL

CNc1ccc([C@H]2C[C@@]3(C)[C@@H](CC[C@]3(OC(C)=O)C(=O)COC)[C@@H]3CCC4=CC(=O)CCC4=C32)cc1 [CDB-4453, 21-methoxy-17α-acetoxy-11β-(4-N-methylaminophenyl)-19-norpregna-4,9-diene-3,20-dione]
anti-glucocorticoid activity (glucocorticoid receptor): even lower anti-glucocorticoid activity than its parent
